Key:
[1] = test system: Listeria monocytogenes, NCTC5348 and NCTC10527; assay: Pre- and post-incubation detection of enzymatic activity in Listeria express broth (LAB589); type: cell-based
Method: 3,4-cyclohexenoesculatin glucoside, was dissolved at 200 mg/ml in 50:50 mixture of dimethylformamide and water. The mixture was then added to pre-dispensed 10 ml volume samples of Listeria express broth (LAB589 from Lab M limited) as 25 μL additions from the prepared stock solutions. Additional broth samples without added chromogen were prepared and inoculated at the same time as the chromogen containing samples. The stock solution was then stored at −20° C. for 24 hours. A 0.5 Macfarlane standard suspension of Listeria monocytogenes, NCTC5348 and NCTC10527, was prepared from 18-24 hour cultures grown in tryptic soy broth (LAB004 from Lab M Limited) at 37° C. These were diluted so as to inoculate each sample with 100-1000 or 10,000-100,000 cfu. Samples were then incubated at 37° C. for 24 hours. The samples were then observed, and bacterial growth confirmed. 50 μL of a 250/mg/ml stock solution of ferric ammonium citrate was then added to each sample. Samples without 3,4-cyclohexenoesculatin glucoside chromogen were then supplemented with 25 μL additions from the stored 3,4-cyclohexenoesculatin glucoside stock solution and observed at ambient temperature for 30 minutes.

[2] = test system: Listeria monocytogenes NCTC 10257; assay: Masking of fluorogenic reaction by CHE glucoside and ferric ammonium citrate in broth; type: cell-based; details: uv light
Method: 4-methylumbelliferyl-β-D glucopyranoside (MC633 from Sigma Aldrich) was dissolved in water at 100 mg/ml and 25 μL of this stock solution added to pre-dispensed 10 mL volumes of Lab589 (Lab M Limited) and Lab049 (Brain heart infusion broth Lab M limited). Listeria monocytogenes NCTC 10257 were prepared from 18-24 hour cultures grown in tryptic soy broth (LAB004 from Lab M Limited) at 37° C. These were diluted so as to inoculate each sample with 100-1000 cfu. Samples were then incubated at 37° C. for 24 hours. Samples were then observed and confirmed for bacterial growth, and further observed under an ultra violet light for fluorescence. The samples were then supplemented with 3,4-cyclohexenoesculatin glucoside (Biosynth C9218), from a 200 mg/ml in 50:50 mixture of dimethylformamide and water. 50 μL of a 250/mg/ml stock solution of ferric ammonium citrate was added to each sample, observing visually for blackening and under ultra violet light for fluorescence masking after 15 minutes incubation at ambient. Table 5 provides that 3,4-cyclohexenoesculatin glucoside can be used as an additional masking reagent to confirm fluorogenic based broth systems.

[3] = L. monocytogenes NCTC 5348 100 cfu, glucoside added post incubation
[4] = L. monocytogenes NCTC 5348 100 cfu, glucoside added pre incubation
[5] = L. monocytogenes NCTC 5348 10000 cfu, glucoside added post incubation
[6] = L. monocytogenes NCTC 5348 10000 cfu, glucoside added pre incubation
[7] = L. monocytogenes NCTC 10527 100 cfu, glucoside added post incubation
[8] = L. monocytogenes NCTC 10527 100 cfu, glucoside added pre incubation
[9] = L. monocytogenes NCTC 10527 10000 cfu, glucoside added post incubation
[10] = L. monocytogenes NCTC 10527 10000 cfu, glucoside added pre incubation

O=c1oc2cc(O)c(O[C@@H]3O[C@H](CO)[C@@H](O)[C@H](O)[C@H]3O)cc2c2c1CCCC2 [3,4-cyclohexenoesculatin glucoside]
Color t = 0 minutes post iron addition [1, 3]: yellow
Color t = 15 minutes post iron addition [1, 3]: Black
Color t = 0 minutes post iron addition [1, 4]: Black
Color t = 15 minutes post iron addition [1, 4]: Black
Color t = 0 minutes post iron addition [1, 5]: yellow
Color t = 15 minutes post iron addition [1, 5]: Black
Color t = 0 minutes post iron addition [1, 6]: Black
Color t = 15 minutes post iron addition [1, 6]: Black
Color t = 0 minutes post iron addition [1, 7]: yellow
Color t = 15 minutes post iron addition [1, 7]: Black
Color t = 0 minutes post iron addition [1, 8]: Black
Color t = 15 minutes post iron addition [1, 8]: Black
Color t = 0 minutes post iron addition [1, 9]: yellow
Color t = 15 minutes post iron addition [1, 9]: Black
Color t = 0 minutes post iron addition [1, 10]: Black
Color t = 15 minutes post iron addition [1, 10]: Black
Time to strong black reaction ([1]; glucoside added post incubation): about 15 minutes
Time to strong black reaction on the addition of ferric ammonium citrate ([1]; samples incubated with the glucoside): instantly

Cc1cc(=O)oc2cc(O[C@@H]3O[C@H](CO)[C@@H](O)[C@H](O)[C@H]3O)ccc12 [4-methylumbelliferyl-β-D glucopyranoside]
Appearance T = 15 minutes post iron addition ([2]; LAB049 broth): fluorescent under uv light
Appearance t = 0 minutes post iron addition ([2]; LAB049 broth): fluorescent under uv light
Appearance T = 15 minutes post iron addition ([2]; LAb589 broth): fluorescent under uv light
Appearance t = 0 minutes post iron addition ([2]; LAb589 broth): fluorescent under uv light

From patent publication US20180163250A1, “Screening Broths Comprising Esculatin Compounds for the Detection of Specific Microorganisms” (Neogen Corporation, priority 2016, published 2018)
